Patent US20090325877A1, “Combination Product of Receptor Tyrosine Kinase Inhibitor and Fatty Acid Synthase Inhibitor for Treating Cancer” (Wyeth, priority 2008, published 2009)
Converted amounts (≈) assume the structure as drawn. “Also recorded” adds a separate entry of the source.

Legend:
[1] = tested on: ErbB2 protein; assay: Total and phosphorylated ErbB2 protein by Western blot in A2780 cells; format: cell-based
Experimental: (§1) Cells plated in culture media containing 5% fetal calf serum at a density of 2.6×10^5 (SKOV3) or 6×10^5 (A2780) in 60 mm dishes (Corning, Corning, N.Y.) were treated with FASN inhibitor C75, with small-molecule ErbB RTK inhibitors (RTKIs), with the MEK1/2 antagonist U0126 or with the PI3K inhibitor LY294002 for the indicated times and at various concentrations. In some experiments cells were stimulated for 5 or 10 min with 100 ng/ml EGF (Sigma) before lysis in RIPA buffer (Grunt et al., Biochem Biophys Res Commun 329:1253-1259, 2005). Proteins (20 μg/lane) were subjected to SDS-PAGE, blotted onto PVDF membranes and immunostained (see Grunt, ibid) using the following antibodies: 2 μg/ml goat anti-pEGFR(Tyr1173) (sc-12351), 1 μg/ml rabbit anti-ErbB2 (C-18) (sc-284), 1 μg/ml rabbit anti-pErbB2(Tyr1248) (sc-12352-R) (all from Santa Cruz Biotechnology Inc., Santa Cruz, Calif.), rabbit anti-EGFR 1:1,000 (2232), rabbit anti-AKT 1:1,000 (9272), rabbit anti-pAKT(Ser473) 1:1,000 (9271), rabbit anti-pAKT(Thr308) 1:1,000 (9275), rabbit anti-pERK1/2(Thr202/Tyr204) 1:1,000 (9101) (all from Cell Signaling Technology), rabbit anti-ERK1/2 1:3,000 (06-182, Upstate Biotechnology Inc., Lake Placid, N.Y.), 0.5 μg/ml mouse monoclonal anti-FASN (610963, BD Biosciences, San Jose, Calif.), or 0.67 μg/ml goat anti-human actin (1-19, sc-1616, Santa Cruz Biotechnology). Secondary antibodies were peroxidase-tagged donkey-anti-rabbit IgG (V795A, Promega, Madison, Wis.) or donkey-anti-goat IgG (sc-2020, Santa Cruz Biotechnology) at 1:15,000, respectively, or chicken anti-mouse IgG (sc-2954, Santa Cruz Biotechnology) at 1:10,000. Detection was performed by enhanced chemiluminescence.

[2] = tested on: EGFR protein; assay: EGFR protein and tyrosine phosphorylation by Western blot in A2780 cells; format: cell-based
[3] = tested on: ErbB2 mRNA; assay: ErbB2 mRNA by RT-PCR and qRT-PCR in A2780 cells; format: cell-based, human
From the text: RNA was extracted from the cells using TRI-REAGENT™ (Molecular Research Center, Cincinnati, Ohio) and subjected to reverse transcription—polymerase chain reaction (“RT-PCR”) using the TITAN ONE TUBE RT-PCR KIT™ system (Hoffmann-La Roche). Primers were: EGFR: 5′-[…]-3′ (SEQ ID NO:1) (forward, E1S) 5′-[…]-3′ (SEQ ID NO:2) (reverse, E1A); ErbB-2: 5′-[…]-3′ (SEQ ID NO:3) (forward, E2S2), 5′-[…]-3′ (SEQ ID NO:4) (reverse, E2A2); GAPDH: 5′-[…]-3′ (SEQ ID NO:5) (forward, GAPDH3S), 5′-[…]-3′ (SEQ ID NO:6) (reverse, GAPDH3A). Conditions for reverse transcription and amplification of the EGFR coding sequence were: 50° C., 30 minutes; 94° C., 2 minutes; 10 cycles (94° C., 30 seconds; 64.9° C., 30 seconds; 68° C., 90 seconds); 30 cycles (94° C., 30 seconds; 64.9° C., 30 seconds; 68° C., 90 seconds +5 seconds autoextension) and 68° C., 7 minutes. Conditions for ErbB2 and GAPDH were: 50° C., 30 minutes; 94° C., 2 minutes; 10 cycles (94° C., 30 seconds; 51° C., 30 seconds; 68° C., 45 seconds); 25 cycles (94° C., 30 seconds; 51° C., 30 seconds; 68° C., 45 seconds +5 seconds autoextension) and 68° C., 7 minutes. DNA products had the following sizes: EGFR: 1452 bp, ErbB2: 900 bp, GAPDH: 488 bp. Fragments were electrophoresed and stained with ethidium bromide.
Quantitative RT-PCR (“qRT-PCR”) was performed in the ABI PRISM 7000™ Sequence Detector (Applied Biosystems, Foster City, Calif.) using human EGFR, ErbB2, and FASN TaqMan® Gene Expression Assay systems (Applied Biosystems; Assay IDs: Hs00193306_m1, Hs00170433_m1, Hs00188012_m1) according to the manufacturer's instructions. β-actin and GAPDH (VIC™ and FAM labeled pre-developed TaqMan® Assay reagents, Applied Biosystems) were used as endogenous controls. EGFR, ErbB2, and FASN mRNA expression were calculated as described previously (Grunt, ibid).

[4] = tested on: ERK1/2; assay: ERK1/2 phosphorylation and expression by Western blotting in A2780 and SKOV3 cells; format: cell-based
Experimental: as §1, with “Secondary antibodies were peroxidase-tagged donkey-anti-rabbit IgG (V795A, Promega, Madison, Wis.) or donkey-anti-goat IgG (sc-2020, Santa Cruz Biotechnology) at 1:15,000, respectively, or chicken anti-mouse IgG (sc-2954, Santa Cruz Biotechnology) at 1:10,000. Detection was performed by enhanced chemiluminescence.” left out

[5] = tested on: AKT; assay: AKT phosphorylation and expression by Western blotting in A2780 and SKOV3 cells; format: cell-based
Experimental: as §1, with “Secondary antibodies were peroxidase-tagged donkey-anti-rabbit IgG (V795A, Promega, Madison, Wis.) or donkey-anti-goat IgG (sc-2020, Santa Cruz Biotechnology) at 1:15,000, respectively, or chicken anti-mouse IgG (sc-2954, Santa Cruz Biotechnology) at 1:10,000. Detection was performed by enhanced chemiluminescence.” left out

Compound: C=C1C(=O)OC(CCCCCCCC)C1C(=O)O (stereo not drawn) [C75, tetrahydro-3-methylene-2-oxo-5-n-octyl-4-furancarboxylic acid]
- phosphorylated ErbB2 (pErbB2), effect in words [1]: downregulates; also recorded: deprivation
- total ErbB2 protein, effect in words [1]: downregulates; also recorded: deprivation
- EGFR total protein, effect in words [2]: slowly and concordantly reduces
- EGFR tyrosine phosphorylation (activity), effect in words [2]: slowly and concordantly reduces
- IT50, EGFR phosphorylation [2]: 20 h
- IT50, EGFR protein [2]: 29 h
- IC50 ([2]; Homo sapiens, Western blot): 3.6 µg/mL (≈ 14.2 µM)
- ErbB2 mRNA, effect in words [3]: not affected; also recorded: failed to diminish
- pERK1/2 levels, effect in words [4]: dose-dependently increase
- total ERK1/2 levels, effect in words [4]: concurrently decline
- phosphorylation of AKT (Ser473, Thr308), effect in words [5]: dose-dependently inhibits
- total AKT protein level, effect in words ([5]; C75 at high concentrations): slightly affects
